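Growth conditions: 96-well plates. Treatment: test compound, 48 hours, 5 concentrations. Analysis: linear interpolation between bracketing concentrations; unreached endpoints set to highest concentration. GI50: concentration for 50% inhibition of growth.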 Activity calls are given as the source filed them. Rule as the data show it: active = GI50 up to about 1.1 µM and inactive = higher.
Columns and labels:
Assay in all cases: NCI tumour cell line growth inhibition, 48 h
[1] = system: 786-0
[2] = system: CCRF-CEM
[3] = system: DU-145
[4] = system: HOP-62
[5] = system: IGROV-1
[6] = system: M14
[7] = system: MDA-MB-231
[8] = system: MDA-MB-435
[9] = system: MDA-N
[10] = system: NCI-H226
[11] = system: NCI-H522
[12] = system: NCI/ADR-RES
[13] = system: OVCAR-5
[14] = system: RPMI-8226
[15] = system: RXF 393
[16] = system: SK-MEL-2
[17] = system: SW-620
[18] = system: TK-10
[19] = system: UACC-257
[20] = system: BT-549

SMILES | GI50 [1] | GI50 [2] | GI50 [3] | GI50 [4] | GI50 [5] | GI50 [6] | GI50 [7] | GI50 [8] | GI50 [9] | GI50 [10] | GI50 [11] | GI50 [12] | GI50 [13] | GI50 [14] | GI50 [15] | GI50 [16] | GI50 [17] | GI50 [18] | GI50 [19] | GI50 [20]
COc1cccc(-c2cc(O)c3cc(N4CCCC4)ccc3n2)c1 | < 0.001 µM (active) | < 0.001 µM (active) | < 0.001 µM (active) | < 0.001 µM (active) | 0.005 µM (active) | < 0.001 µM (active) | 0.00155 µM (active) | < 0.001 µM (active) | < 0.001 µM (active) | < 0.001 µM (active) | < 0.001 µM (active) | < 0.001 µM (active) | 0.00328 µM (active) | < 0.001 µM (active) | < 0.001 µM (active) | < 0.001 µM (active) | < 0.001 µM (active) | 2.6 µM (inactive) | < 0.001 µM (active) | 
COc1cccc2c1[C@H]1OC(=O)NC1CCCCC2 (stereo partly drawn) | > 100 µM (inactive) | > 100 µM (inactive) |  | > 100 µM (inactive) | > 100 µM (inactive) | > 100 µM (inactive) |  |  |  | > 100 µM (inactive) | > 100 µM (inactive) |  | > 100 µM (inactive) | > 100 µM (inactive) | > 100 µM (inactive) | > 100 µM (inactive) | > 100 µM (inactive) | > 100 µM (inactive) | > 100 µM (inactive) | 
CNC(=O)CCCNC(=O)CCCCC(=O)N(C)C | > 100 µM (inactive) |  | > 100 µM (inactive) | > 100 µM (inactive) |  | > 100 µM (inactive) | > 100 µM (inactive) | > 100 µM (inactive) | > 100 µM (inactive) |  | > 100 µM (inactive) | > 100 µM (inactive) | > 100 µM (inactive) | > 100 µM (inactive) | > 100 µM (inactive) | > 100 µM (inactive) | > 100 µM (inactive) | > 100 µM (inactive) |  | 
CN(C)c1ccc(/C=N/c2ccc(-c3nc4ccccc4s3)cc2)cc1 | 20.2 µM (inactive) | 0.578 µM (active) | 35.6 µM (inactive) | 24.5 µM (inactive) | 36.2 µM (inactive) | 41.1 µM (inactive) |  | 33.8 µM (inactive) | 34.5 µM (inactive) | 32 µM (inactive) | 18.1 µM (inactive) | 28.9 µM (inactive) | 40.2 µM (inactive) | 25.6 µM (inactive) | 17.9 µM (inactive) | 22.9 µM (inactive) | 22.9 µM (inactive) | 30.1 µM (inactive) | 28 µM (inactive) | 35.4 µM (inactive)
CN(CCCNC(=O)c1cn(C)c2c1Cc1ccccc1-2)CCCNC(=O)c1cn(C)c2c1Cc1ccccc1-2 | 4.83 µM (inactive) | 2.74 µM (inactive) |  | 12.9 µM (inactive) | 6.24 µM (inactive) | 3.81 µM (inactive) | 13.6 µM (inactive) | 2.21 µM (inactive) | 3.58 µM (inactive) | 17.2 µM (inactive) |  | 12.5 µM (inactive) | 15.6 µM (inactive) | 21.3 µM (inactive) | 16.8 µM (inactive) | 16.7 µM (inactive) | 3.66 µM (inactive) | 11.6 µM (inactive) | 6.12 µM (inactive) | 17.1 µM (inactive)
COc1cccc(C2CC(=O)c3cccn32)c1 (stereo not drawn) | > 100 µM (inactive) | > 100 µM (inactive) | > 100 µM (inactive) | > 100 µM (inactive) | > 100 µM (inactive) | > 100 µM (inactive) | 82.6 µM (inactive) | > 100 µM (inactive) |  | > 100 µM (inactive) | > 100 µM (inactive) | > 100 µM (inactive) | > 100 µM (inactive) | > 100 µM (inactive) | > 100 µM (inactive) | > 100 µM (inactive) | > 100 µM (inactive) | > 100 µM (inactive) | > 100 µM (inactive) | 
CCOc1c(Br)cc(Br)cc1C=C(C#N)C#N | 7.01 µM (inactive) | 1.18 µM (inactive) |  | > 10 µM (inactive) | 4.29 µM (inactive) |  |  | 4.18 µM (inactive) | 1.83 µM (inactive) | 0.69 µM (active) |  | 1.27 µM (inactive) |  | 0.942 µM (active) | > 10 µM (inactive) | > 10 µM (inactive) | 2.23 µM (inactive) | 5.43 µM (inactive) |  | 
Oc1c([Si](c2ccccc2)(c2ccccc2)c2ccccc2)cc2ccccc2c1-c1c(O)c([Si](c2ccccc2)(c2ccccc2)c2ccccc2)cc2ccccc12 | > 100 µM (inactive) | > 100 µM (inactive) | > 100 µM (inactive) | 98.9 µM (inactive) | > 100 µM (inactive) | > 100 µM (inactive) | > 100 µM (inactive) | > 100 µM (inactive) | > 100 µM (inactive) |  | > 100 µM (inactive) | > 100 µM (inactive) | > 100 µM (inactive) | > 100 µM (inactive) | > 100 µM (inactive) | > 100 µM (inactive) | > 100 µM (inactive) | > 100 µM (inactive) | > 100 µM (inactive) | 
CCC(=O)O[C@H]1CC[C@H]2[C@@H]3CCC4=C/C(=N/OC(=O)c5cccc6c(=O)c7ccccc7[nH]c56)CC[C@]4(C)[C@H]3CC[C@]12C | 18.4 µM (inactive) | 14 µM (inactive) |  | 32.1 µM (inactive) | 21.8 µM (inactive) | 24.7 µM (inactive) | 88.3 µM (inactive) | 27.6 µM (inactive) | 35 µM (inactive) | 33.8 µM (inactive) | 18.6 µM (inactive) | 31.7 µM (inactive) | 33.7 µM (inactive) | 19.9 µM (inactive) | 22.5 µM (inactive) | 31.6 µM (inactive) | 32 µM (inactive) | 54.6 µM (inactive) | 38.1 µM (inactive) | 25.3 µM (inactive)
COc1cc(C2c3cc4c(cc3OC(NNS(=O)(=O)c3ccc(C)cc3)C2C)OCO4)cc(OC)c1O (stereo not drawn) | 16.6 µM (inactive) | 7.94 µM (inactive) | 33.8 µM (inactive) | 10.4 µM (inactive) | 9.25 µM (inactive) | 15.6 µM (inactive) | 12.3 µM (inactive) | 3.21 µM (inactive) | 5.21 µM (inactive) | 9.16 µM (inactive) | 25 µM (inactive) | 6.68 µM (inactive) | 33.9 µM (inactive) | 10.1 µM (inactive) | 10.5 µM (inactive) |  | 24.3 µM (inactive) | 5.41 µM (inactive) | 5.06 µM (inactive) | 
COc1ccc(/C=c2\c(=O)[nH]c3nc4ccccc4c(=O)n23)cc1 | 99.5 µM (inactive) | 39.9 µM (inactive) | 61.2 µM (inactive) | > 100 µM (inactive) | 68.4 µM (inactive) | 75.2 µM (inactive) | > 100 µM (inactive) | 51.2 µM (inactive) |  | 74.6 µM (inactive) | 37.3 µM (inactive) | > 100 µM (inactive) | > 100 µM (inactive) | 58.3 µM (inactive) | 46.1 µM (inactive) | > 100 µM (inactive) | 36.1 µM (inactive) | > 100 µM (inactive) | 88.9 µM (inactive) | 27.3 µM (inactive)
CCOC(=O)CCn1cnc(N)n1 | > 100 µM (inactive) | > 100 µM (inactive) |  | > 100 µM (inactive) | > 100 µM (inactive) | > 100 µM (inactive) |  |  |  | > 100 µM (inactive) | > 100 µM (inactive) |  | > 100 µM (inactive) | > 100 µM (inactive) | > 100 µM (inactive) | > 100 µM (inactive) | > 100 µM (inactive) | > 100 µM (inactive) | > 100 µM (inactive) | 
CC1(C)O[C@@H]([C@H](O)CO)[C@H](O)[C@@H](C2SCCCS2)O1 | > 100 µM (inactive) |  | > 100 µM (inactive) | > 100 µM (inactive) | > 100 µM (inactive) | > 100 µM (inactive) | > 100 µM (inactive) | > 100 µM (inactive) |  | > 100 µM (inactive) |  | > 100 µM (inactive) | > 100 µM (inactive) | 50.6 µM (inactive) | > 100 µM (inactive) | > 100 µM (inactive) | > 100 µM (inactive) | > 100 µM (inactive) | > 100 µM (inactive) | > 100 µM (inactive)
O=c1[nH]c(=S)c2cc3c(=S)[nH]c(=O)n(CCO)c3nc2n1CCO | > 100 µM (inactive) | > 100 µM (inactive) |  | > 100 µM (inactive) | > 100 µM (inactive) | > 100 µM (inactive) | > 100 µM (inactive) | > 100 µM (inactive) | > 100 µM (inactive) | > 100 µM (inactive) | > 100 µM (inactive) | > 100 µM (inactive) | > 100 µM (inactive) | > 100 µM (inactive) | > 100 µM (inactive) | > 100 µM (inactive) | > 100 µM (inactive) | > 100 µM (inactive) | > 100 µM (inactive) | > 100 µM (inactive)
O=C(O)c1ccccc1NS(=O)(=O)c1ccc([N+](=O)[O-])cc1 | > 100 µM (inactive) | > 100 µM (inactive) |  | > 100 µM (inactive) | > 100 µM (inactive) | > 100 µM (inactive) |  |  |  | > 100 µM (inactive) | > 100 µM (inactive) |  | > 100 µM (inactive) | > 100 µM (inactive) | > 100 µM (inactive) | > 100 µM (inactive) | > 100 µM (inactive) | > 100 µM (inactive) | > 100 µM (inactive) | 
CCOC(=O)N1C(=O)C2C3C=CC(C2C1=O)C1C2C(=O)N(C(=O)OCC)C(=O)C2C31 (stereo not drawn) | > 83 µM (inactive) | > 93.1 µM (inactive) |  | > 100 µM (inactive) | > 100 µM (inactive) | > 100 µM (inactive) |  |  |  | > 100 µM (inactive) | > 100 µM (inactive) |  | > 100 µM (inactive) | > 100 µM (inactive) | > 100 µM (inactive) | > 100 µM (inactive) | > 41 µM (inactive) | > 100 µM (inactive) | > 100 µM (inactive) | 

From ChEMBL document CHEMBL1201862, “PubChem BioAssay data set” (2004)
